Tests used:
CYP2C8 [1] = biological target: T1, CYP2C8 (Homo sapiens, UniProt P10632); design: Estimation of CYP2C8 Half-Life Using Repaglinide as an in Vivo Probe; host or cells: in vivo (subjects of the cited studies); conditions: cited from earlier work
T1 sequence (P10632 1-490): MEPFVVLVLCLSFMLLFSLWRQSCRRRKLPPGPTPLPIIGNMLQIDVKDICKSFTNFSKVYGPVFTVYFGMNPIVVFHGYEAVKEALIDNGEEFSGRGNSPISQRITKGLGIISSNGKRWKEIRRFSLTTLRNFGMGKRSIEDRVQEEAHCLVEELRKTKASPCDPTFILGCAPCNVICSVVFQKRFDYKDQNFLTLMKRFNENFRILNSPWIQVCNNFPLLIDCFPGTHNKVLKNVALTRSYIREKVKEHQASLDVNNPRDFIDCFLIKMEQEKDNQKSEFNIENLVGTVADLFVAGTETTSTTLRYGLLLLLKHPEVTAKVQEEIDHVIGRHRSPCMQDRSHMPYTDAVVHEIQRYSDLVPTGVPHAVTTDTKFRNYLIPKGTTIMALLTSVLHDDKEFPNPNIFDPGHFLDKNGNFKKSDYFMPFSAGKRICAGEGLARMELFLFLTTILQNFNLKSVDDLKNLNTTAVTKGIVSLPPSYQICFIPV

CYP2C8 [2] = biological target: T1, CYP2C8; design: Estimation of CYP2C8 Half-Life Using Repaglinide as an in Vivo Probe; host or cells: in vivo (subjects of the cited studies); conditions: gemfibrozil 600 mg twice daily; Tornio et al 2008; cited from earlier work
CYP2C8 [3] = biological target: T1, CYP2C8; assay: Effect of single oral gemfibrozil doses on repaglinide AUC, fitted to a mechanistic model of CYP2C8 inhibition; type: in vivo; design: The subjects ingested in a cross-over study a small dose (0.25 mg) of repaglinide with different doses of gemfibrozil; from tissue; host or cells: living human subjects (in vivo)
Method: The effect of various oral single doses (30 mg, 100 mg, 300 mg and 900 mg) of gemfibrozil on the total plasma exposure, i.e., area under the plasma concentration-time curve (AUC), of a CYP2C8 and OATP1B1 substrate drug (repaglinide) was measured. The mean fold increase in the AUC (AUCi/AUCc) of repaglinide with the different gemfibrozil doses in six human subjects is given in relation to the mean average plasma concentration of gemfibrozil 1-O-β-glucuronide during 10 hours after gemfirozil dosing (Cavg). The subjects ingested in a cross-over study a small dose (0.25 mg) of repaglinide with different doses of gemfibrozil. Venous blood samples were taken at fixed time points up to 10 hours after gemfibrozil dosing, and plasma repaglinide, gemfibrozil and gemfibrozil 1-O-β-glucuronide concentrations were determined using a validated liquid chromatographic-tandem mass spectrometric (LC/MSMS) method. The data were fitted to the following mechanistic model (equation):

[4] = Effects of different gemfibrozil doses on plasma profiles of repaglinide, repaglinide dose adjusted to equal AUC; type: in vivo, human; conditions: when the ratio of gemfibrozil (0-900 mg) to repaglinide is increased; repaglinide dose adjusted to same AUC
Method: The effects of different doses of gemfibrozil (0 mg, 30 mg, 100 mg, 300 mg and 900 mg) on plasma profiles of repaglinide were measured. The doses of repaglinide were adjusted so that the total exposure to repaglinide (defined as the area under plasma repaglinide concentration-time curve, AUC) is the same in all 5 cases, corresponding to the AUC after a single dose of 0.25 mg repaglinide without gemfibrozil.

| SMILES | inhibitor of CYP2C8 (qualitative) (CYP2C8 [1]) | persistence of the risk of gemfibrozil-related interactions (effect on repaglinide pharmacokinetics) after the dose (CYP2C8 [2]) | effect of small gemfibrozil doses in repeated dosing (CYP2C8 [3]; repeated dosing, gemfibrozil doses <30 mg, due to irreversible inhibition of CYP2C8) | inhibition of the CYP2C8 enzyme (CYP2C8 [3]; single oral dose of 100 mg gemfibrozil, model-based from fold increase in repaglinide (0.25 mg) AUC, six human subjects) | elimination half-life (and effect) of repaglinide [4] | estimated peak concentration of repaglinide [4] |
| --- | --- | --- | --- | --- | --- | --- |
| Cc1ccc(C)c(OCCCC(C)(C)C(=O)O)c1 [gemfibrozil, 5-(2,5-dimethylphenoxy)-2,2-dimethyl-pentanoic acid] | relatively weak inhibitor | at Least 12 hours | increased | 90% |  |  |
| Cc1ccc(C)c(OCCCC(C)(C)C(=O)O[C@@H]2O[C@H](C(=O)O)[C@@H](O)[C@H](O)[C@H]2O)c1 [gemfibrozil 1-O-β-glucuronide] | potent inhibitor and inactivator |  |  |  |  |  |
| CCOc1cc(CC(=O)N[C@@H](CC(C)C)c2ccccc2N2CCCCC2)ccc1C(=O)O [repaglinide] |  |  |  |  | prolonged | reduced |
